Experimental data taken from patent publication US11814366B2, “Antiviral compounds and use thereof” (UNIVERSITA DEGLI STUDI DI SIENA, priority 2018, dated 2023).

Key:
[1] = tested on: RSV; assay: RSV inhibition assay on Hep-2 cells; type: cell-based, RSV strain A2; settings: human respiratory syncytial virus
Experimental: (§1) Hep-2 cells were pre-plated in a 96-well plate. The following day concentrations of compounds ranging from 50 μM to 0.0001 μM in DMSO were mixed with RSV (MOI 0.005 pfu/cell) and incubated for 1 hour at 37° C. The mixtures were subsequently added to the cells, which were then incubated at 37° C. for 3 h; monolayers were then washed and overlaid with 1.2% methylcellulose medium. 72 hours later cells were fixed and subjected to specific immunostaining using an RSV monoclonal antibody (Ab35958; Abeam, Cambridge, United Kingdom) in order to visualize syncytia. EC50 were calculated by comparing numbers of syncytia in treated and untreated wells. The effective concentration producing 50% reduction in plaque formation (EC50) was determined using Prism software. The selectivity index (SI) was calculated by dividing the CC50 by the EC50 value.

[2] = tested on: HSV-2; assay: Pretreatment assay, Vero cells treated before HSV-2; type: cell-based, Herpes 2 virus (HSV-2); settings: Vero cells pretreated 2 h at 37° C., then HSV-2
Experimental: Vero Cells were pretreated for 2 h at 37° C. with increasing concentrations of compound 15b in DMSO the inocula were then removed cells washed and HSV-2 was added on cells for 2 h at 37° C. Subsequently the same protocol described above for the evaluation of HSV inhibition was followed.

[3] = tested on: HSV2; assay: Virucidal assay; type: cell-based, Herpes 2 virus (HSV-2); settings: 10 μM, 2 h at 37° C., titrated at dilutions where compound no more active
Experimental: Approximately 10^5 PFU of HSV2 plus 10 μM of 15b in DMSO were added to MEM and mixed in a total volume of 100 μl. The virus-compound mixtures were incubated for 2 h at 37° C. then diluted serially to the non-inhibitory concentration of test compound; the residual viral infectivity was determined by viral plaque assay (FIG. 2).

[4] = tested on: HCMV; assay: HCMV inhibition assay on HELF cells; type: cell-based, HCMV strain Towne; settings: Human betaherpesvirus 5, HELF
Experimental: as §1, with “HELF” for “Hep-2”, “HCMV” for “RSV”, “medium supplemented with 3% FCS and 1 mM sodium pyruvate. After five days incubation,” for “medium. 72 hours later”, “observed under an inverted Zeiss LSM510 fluorescence microscope (Zeiss, Oberkochen, Germany)” for “fixed”, “the” for “subjected to specific immunostaining using an RSV monoclonal antibody (Ab35958; Abeam, Cambridge, United Kingdom) in order to visualize syncytia.”, “GFP positive cells” for “numbers of syncytia”

[5] = tested on: HSV-1; assay: HSV-1 plaque reduction assay on Vero cells; type: cell-based, Herpes 1 virus (HSV-1); settings: Human alphaherpesvirus 1, Vero
[6] = in vitro; settings: African green monkey
[7] = tested on: HeLa cells; assay: Cell viability (MTS) assay, HeLa cells; type: cell-based, human; settings: conditions of the Ad5 assay
Experimental: (§2) Cell viability was measured using the MITS [3-(4,5-dimethylthiazol-2-yl)-5-(3 carboxy methoxy phenyl)-2-(4-sulfophenyl)-2H-tetrazolium] assay. Cell cultures were seeded in 96-well plates and were incubated with different concentrations of compounds of the invention in triplicate under the same experimental conditions described for the antiviral assays. Cell viability was determined using the CellTiter 96 Proliferation Assay Kit (Promega, Madison, WI, USA) according to the manufacturer's instructions. Absorbances were measured using a Microplate Reader (Model 680, BIORAD) at 490 nm. The effect on cell viability at different concentrations of the compound was expressed as a percentage, by comparing absorbances of treated cells with those of cells incubated with culture medium and equal volumes of vehicle. The 50% cytotoxic concentrations (CC50) and 95% confidence intervals (CIs) were determined using Prism software (Graph-Pad Software, San Diego, CA).

[8] = Cell viability (MTS) assay, HeLa cells; type: cell-based, human; settings: human, HeLa cells; conditions of the HPV-16 assay
Experimental: as §2

[9] = tested on: HIV Strain NL4-3; assay: HIV-1 inhibition assay, strain NL4-3, TZM-bl cells, CPRG readout; type: cell-based; settings: Human immunodeficiency virus 1, NL43, virus pretreated 1 h at 37° C. with compound
Experimental: The human TZM-bl indicator cell line (obtained from the NIH AIDS reagents program, cat. Nr 8129, www.aidsreagent.org) was maintained at 37° C. and 5% CO2 in Dulbecco's modified Eagle's medium (DMEM) medium containing 10% fetal bovine serum, 50 μg/ml penicillin, and 50 μg/ml streptomycin. The HIV-1 laboratory strains NL (AD8) (NIH AIDS reagents program, cat. Nr, 11346) and NL4.3 (NIH AIDS reagents program, cat. Nr. 114) were titrated as previously reported by Tiberi et al (2014). Briefly, serial 5-fold dilutions of each virus were made in quadruplicate wells in 96-well culture plates, in a total volume of 100 μl of growth medium (DMEM), for a total of 8 dilution steps. Freshly trypsinized cells (20,000 cells in 100 μl of growth medium containing 75 μg/mL DEAE-dextran) were added to each well, and the plates were incubated at 37° C. in a humidified 5% CO2-95% air environment. After 48 h of incubation, the medium was removed and viral infection was quantified using a β-galactosidase (CPRG) assay (Roche). Twenty thousand TZM-bl cells/well were seeded in 96-well plates in complete DMEM supplemented with 30 μg/ml DEAE-dextran (Sigma-Aldrich). Three hundred times the 50% tissue culture infective dose (TCID50)/ml of each strain was pretreated for 1 h at 37° C. with six serial dilutions (10000 nM, 2000 nM, 400 nM, 80 nM, 16 nM, 3.2 nM) and then added to the cells. Vehicle (0.1% dimethyl sulfoxide [DMSO])-treated cells served as a negative control. […] After 2 days, viral infection was quantified using a CPRG assay (Roche cat nr 11379119103). The inhibitory curves were fitted by nonlinear regression, allowing for the calculation of the 50% effective concentration (EC50) using the Prism software. To evaluate the cell toxicity of the compounds, the metabolic XTT [2,3-bis-(2-methoxy-4-nitro-5-sulfophenyl)-2H-tetrazolium-5-carboxanilide] test (Sigma-Aldrich) was performed according to the manufacturer's instructions.

## O=C1NC(=S)N(CCc2ccccc2)C(=O)/C1=C\c1ccc(-c2ccc(C(=O)O)c(O)c2)[nH]1 [Compound 15b, (Z)-4-(5-((4,6-dioxo-1-phenethyl-2-thioxotetrahydropyrimidin-5(2H)-ylidene)methyl)-1H-pyrrol-2-yl)-2-hydroxybenzoic Acid]
[1]
  EC50: 315 nM
  EC90: 1510 nM
[2]
  antiviral activity in pre-treatment assay: inactive
[3]
  residual viral infectivity after virucidal incubation: never regained
[4]
  EC50: 118 nM
  EC90: 772 nM
[5]
  EC50: 454 nM
  EC90: 3720 nM
[6]; CC50, conditions of the HSV-1 assay
  CC50: > 300000 nM
[6]; CC50, conditions of the HSV-2 Acy R assay
  CC50: > 300000 nM
[6]; CC50, conditions of the HSV-2 assay (Table 2)
  CC50: > 300000 nM
[6]; CC50, conditions of the ZIKAV assay (Table 3)
  CC50: > 111000 nM
[7]
  CC50: > 300000 nM
[8]
  CC50: > 300000 nM
[9]
  EC50: 64 nM
